Assay results taken from PMC8058733, “A pain killer without analgesic tolerance designed by co-targeting PSD-95-nNOS interaction and α2-containning GABAARs” (Theranostics, 2021).

Experiments:
[1] = test system: SNL-induced mechanical hyperalgesia; experiment: SNL-induced mechanical hyperalgesia, von Frey; assay type: in vivo, mice
Method: Neuropathic pain was induced by segmental spinal nerve ligation (SNL). Animals were anesthetized with isoflurane. After the loss of righting reflex, the animal was fixed in the prone position. The SNL model was prepared as described previously: a median skin incision with about 3-5 cm length in L4-S2 level of the mouse back was made, the muscles next to the vertebrae till the sixth lumbar protruding were separated, the L5/L6 joint protruding on the right side was exposed and excised, and L6 processus transversus was partially split so that the L4-L6 spinal nerves on the right side were exposed. L5 nerve was gently isolated and tightly ligated with 5-0 silk thread. The wound was closed with 4-0 silk thread suture and covered with iodine solution. After nerve ligation, animals with signs of paw clonus or autotomy were excluded from further experiments.
For mice, the threshold for 50% PWT response to mechanical stimulus was quantified by assessing the paw withdrawal threshold using von Frey filaments (Touch-Test TM Sensory Evaluator, North coast Medical, Inc.). Mice were placed individually in a plastic cage (4.5 × 5 × 11 cm) with a wire mesh bottom which allowed full access to the paws. Behavioral accommodation was allowed for 20-30 min until cage exploration and major grooming activities ceased. Mechanical threshold was measured by applying a von Frey filament to the ventral surface of the right hind paw until a positive sign of pain behavior was elicited. The paradigm for assessing the threshold was as follows. Von Frey filaments with logarithmically incremental stiffness (0.02-2 g) were applied serially to the paw by the up-down method. The filaments were presented, in ascending order of strength, perpendicular to the plantar surface with sufficient force to causes light bending against the paw and held for 4s. A positive response was noted if the paw was sharply withdrawn. Flinching immediately upon removal of the hair was also considered a positive response. The 2-g filament was selected as the upper limit cut-off for testing. If there was no response at 2-g filament, animals were assigned this cut-off value. The pattern of positive and negative withdrawal responses was converted to 50% threshold according to the formula: 50% PWT = 10 log (X) + κδ. X = value (in log unit) of the final von Frey hair used; κ is correction factors based on the pattern of responses from the calibration table; δ = mean difference in log units between stimuli (here, 0.224).

[2] = test system: CFA-induced inflammatory pain; experiment: CFA-induced inflammatory pain, paw withdrawal threshold; assay type: in vivo; settings: mice, ZL006-05 60 mg/kg, i.g., given 24 h after CFA injection
Method: For mice, the threshold for 50% PWT response to mechanical stimulus was quantified by assessing the paw withdrawal threshold using von Frey filaments (Touch-Test TM Sensory Evaluator, North coast Medical, Inc.). Mice were placed individually in a plastic cage (4.5 × 5 × 11 cm) with a wire mesh bottom which allowed full access to the paws. Behavioral accommodation was allowed for 20-30 min until cage exploration and major grooming activities ceased. Mechanical threshold was measured by applying a von Frey filament to the ventral surface of the right hind paw until a positive sign of pain behavior was elicited. The paradigm for assessing the threshold was as follows. Von Frey filaments with logarithmically incremental stiffness (0.02-2 g) were applied serially to the paw by the up-down method. […]
(A) Time course of SNL-induced thermal hyperalgesia after treating with ZL006-05 (60 mg/kg, i.g.) in mice. Paw withdrawal latency response to thermal stimulation was detected at 0, 1, 2, 4, 6, 8, 10, 12 and 24 h after drug administration. ( B) Areas under the curve of paw withdrawal latency 0-24 h after treatment calculated from ( A) (F (1,16) = 43.07, ***p < 0.001, two-tailed t-test, n = 9). […] (E) Areas under the curve of paw withdrawal latency 0-24 h after treatment calculated from (D) (F (1,18) = 71.73, ***p <0.001, two-tailed t-test, n = 10). […]

[3] = test system: motor coordination; experiment: Rotarod test, motor coordination; assay type: in vivo; settings: rats, 30 min after injection, ZL006-05 60 mg/kg, i.v., diazepam 0.5 mg/kg
[4] = molecular target: T1, PSD-95-nNOS complex (Rattus norvegicus, UniProt P29476); experiment: Co-IP of PSD-95-nNOS complex levels in the spinal dorsal horn after SNL; assay type: in vivo; settings: SNL rats treated by ZL006-05
T1 construct: dorsal spinal cord tissues (L4 and L5) were lysed in 400 μl RIPA; from tissue; host or cells: rat dorsal spinal cord (L4 and L5), SNL model
T1 sequence (P29476 whole entry, one chain of several): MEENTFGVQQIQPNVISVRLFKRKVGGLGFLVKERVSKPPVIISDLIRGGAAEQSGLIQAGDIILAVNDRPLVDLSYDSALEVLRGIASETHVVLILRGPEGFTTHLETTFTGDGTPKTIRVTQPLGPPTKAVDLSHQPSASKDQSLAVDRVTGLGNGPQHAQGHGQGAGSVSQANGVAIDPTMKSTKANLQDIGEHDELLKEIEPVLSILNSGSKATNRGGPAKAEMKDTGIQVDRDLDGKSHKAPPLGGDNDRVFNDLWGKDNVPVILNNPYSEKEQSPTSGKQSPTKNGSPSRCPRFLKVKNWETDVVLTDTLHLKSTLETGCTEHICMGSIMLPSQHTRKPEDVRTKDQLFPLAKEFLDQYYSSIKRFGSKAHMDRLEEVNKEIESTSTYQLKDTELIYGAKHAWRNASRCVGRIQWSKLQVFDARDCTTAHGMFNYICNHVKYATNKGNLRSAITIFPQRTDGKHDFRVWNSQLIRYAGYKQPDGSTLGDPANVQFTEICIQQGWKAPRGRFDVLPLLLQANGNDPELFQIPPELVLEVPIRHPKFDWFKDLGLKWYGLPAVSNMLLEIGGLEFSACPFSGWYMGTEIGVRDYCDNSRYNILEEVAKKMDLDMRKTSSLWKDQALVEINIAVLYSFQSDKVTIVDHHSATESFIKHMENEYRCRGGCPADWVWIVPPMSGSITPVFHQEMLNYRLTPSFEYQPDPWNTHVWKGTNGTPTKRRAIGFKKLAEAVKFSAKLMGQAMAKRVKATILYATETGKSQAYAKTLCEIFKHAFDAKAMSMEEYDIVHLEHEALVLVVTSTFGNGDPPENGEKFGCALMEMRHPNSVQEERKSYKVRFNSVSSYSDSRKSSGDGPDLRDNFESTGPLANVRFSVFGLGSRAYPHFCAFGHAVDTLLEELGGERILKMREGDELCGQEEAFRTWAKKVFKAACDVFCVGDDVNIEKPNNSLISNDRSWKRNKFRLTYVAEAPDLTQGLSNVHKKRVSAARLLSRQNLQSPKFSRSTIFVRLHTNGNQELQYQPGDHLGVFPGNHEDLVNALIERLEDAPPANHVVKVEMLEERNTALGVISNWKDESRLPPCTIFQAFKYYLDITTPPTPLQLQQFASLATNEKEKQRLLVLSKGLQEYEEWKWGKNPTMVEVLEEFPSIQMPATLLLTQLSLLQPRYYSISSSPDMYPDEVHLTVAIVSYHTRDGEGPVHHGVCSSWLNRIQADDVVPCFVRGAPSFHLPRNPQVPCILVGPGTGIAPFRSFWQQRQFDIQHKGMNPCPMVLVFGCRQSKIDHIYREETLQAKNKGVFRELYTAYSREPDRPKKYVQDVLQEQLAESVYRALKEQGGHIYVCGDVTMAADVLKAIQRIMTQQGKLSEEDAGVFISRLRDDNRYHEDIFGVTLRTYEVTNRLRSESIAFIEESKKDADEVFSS

Structure (SMILES): CC1(C)C2CCC1(C)C(OC(=O)c1ccc(NCc3cc(Cl)cc(Cl)c3O)cc1O)C2 (stereo not drawn) [ZL006-05]
- Analgesic tolerance, mechanical hyperalgesia, 28 days treatment ([1]; SNL mice, ZL006-05 60 mg/kg/d, i.g., × 28 d, pregabalin 30 mg/kg/d): maintained its antinociceptive effect during 28 days treatment
- Analgesic tolerance, mechanical hyperalgesia ([1]; SNL nNOS-/- and WT mice, ZL006-05 60 mg/kg/d, i.g., 11 d): caused a remarkable analgesic tolerance in nNOS^-/- mice but not in WT mice
- Effect on SNL-induced mechanical hyperalgesia ([1]; mice, ZL006-05 i.g., single administration, 0-12 h): reduced SNL-induced mechanical hyperalgesia
- Effect on CFA-induced inflammatory pain [2]: reduced
- Motor coordination, time spent on the accelerating rotarod [3]: had no effect
- PSD-95-nNOS complex level in the SDH [4]: abolished the SNL-induced increase in PSD-95-nNOS complex in the SDH
